Where a name gives a salt, the structure may show the parent alone.

Assay [1] deals with T1, horseradish peroxidase (HRP) tagged delF508-CFTR (Homo sapiens, UniProt P13569, DEL508-508).
T1 construct: expressed in transfected cells
Kind of assay: Measurement of delF508-CFTR-HRP surface expression in CFBE41o- cells.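 For DelF508-CFTR-HRP Amax %: percent efficacy relative to reference corrector lumacaftor.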 Format: cell-based. The conditions noted are these: delF508-CFTR-HRP surface expression, CFBE41o- cells; for EC50: read-out: DelF508-CFTR-HRP EC50; for Emax: read-out: DelF508-CFTR-HRP Amax %. The method, boiled down:
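Surface-trafficked delF508-CFTR detected via extracellular HRP tag, read as luminescence from a membrane-impermeant substrate in CFBE41o- cells. Cells pre-induced 48h with 500 ng/mL doxycycline, then exposed 24h at 37° C to a 10-point, 3-fold dilution series from 10 μM (DMSO ≤0.5%). Triplicate dose-responses fitted logistically for EC50 after per-plate normalization; fold change versus reference compound.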

The target in the next assay is T2, delF508-CFTR (Homo sapiens, UniProt P13569, DEL508-508).
T2 construct: functional activity of the CFTR channel (Chloride ion transport) in patient derived primary human bronchial epithelial cells; host or cells: patient-derived primary human bronchial epithelial cells (delF508-CFTR)
T2 sequence (P13569 with tags, fused parts or gaps DEL508-508): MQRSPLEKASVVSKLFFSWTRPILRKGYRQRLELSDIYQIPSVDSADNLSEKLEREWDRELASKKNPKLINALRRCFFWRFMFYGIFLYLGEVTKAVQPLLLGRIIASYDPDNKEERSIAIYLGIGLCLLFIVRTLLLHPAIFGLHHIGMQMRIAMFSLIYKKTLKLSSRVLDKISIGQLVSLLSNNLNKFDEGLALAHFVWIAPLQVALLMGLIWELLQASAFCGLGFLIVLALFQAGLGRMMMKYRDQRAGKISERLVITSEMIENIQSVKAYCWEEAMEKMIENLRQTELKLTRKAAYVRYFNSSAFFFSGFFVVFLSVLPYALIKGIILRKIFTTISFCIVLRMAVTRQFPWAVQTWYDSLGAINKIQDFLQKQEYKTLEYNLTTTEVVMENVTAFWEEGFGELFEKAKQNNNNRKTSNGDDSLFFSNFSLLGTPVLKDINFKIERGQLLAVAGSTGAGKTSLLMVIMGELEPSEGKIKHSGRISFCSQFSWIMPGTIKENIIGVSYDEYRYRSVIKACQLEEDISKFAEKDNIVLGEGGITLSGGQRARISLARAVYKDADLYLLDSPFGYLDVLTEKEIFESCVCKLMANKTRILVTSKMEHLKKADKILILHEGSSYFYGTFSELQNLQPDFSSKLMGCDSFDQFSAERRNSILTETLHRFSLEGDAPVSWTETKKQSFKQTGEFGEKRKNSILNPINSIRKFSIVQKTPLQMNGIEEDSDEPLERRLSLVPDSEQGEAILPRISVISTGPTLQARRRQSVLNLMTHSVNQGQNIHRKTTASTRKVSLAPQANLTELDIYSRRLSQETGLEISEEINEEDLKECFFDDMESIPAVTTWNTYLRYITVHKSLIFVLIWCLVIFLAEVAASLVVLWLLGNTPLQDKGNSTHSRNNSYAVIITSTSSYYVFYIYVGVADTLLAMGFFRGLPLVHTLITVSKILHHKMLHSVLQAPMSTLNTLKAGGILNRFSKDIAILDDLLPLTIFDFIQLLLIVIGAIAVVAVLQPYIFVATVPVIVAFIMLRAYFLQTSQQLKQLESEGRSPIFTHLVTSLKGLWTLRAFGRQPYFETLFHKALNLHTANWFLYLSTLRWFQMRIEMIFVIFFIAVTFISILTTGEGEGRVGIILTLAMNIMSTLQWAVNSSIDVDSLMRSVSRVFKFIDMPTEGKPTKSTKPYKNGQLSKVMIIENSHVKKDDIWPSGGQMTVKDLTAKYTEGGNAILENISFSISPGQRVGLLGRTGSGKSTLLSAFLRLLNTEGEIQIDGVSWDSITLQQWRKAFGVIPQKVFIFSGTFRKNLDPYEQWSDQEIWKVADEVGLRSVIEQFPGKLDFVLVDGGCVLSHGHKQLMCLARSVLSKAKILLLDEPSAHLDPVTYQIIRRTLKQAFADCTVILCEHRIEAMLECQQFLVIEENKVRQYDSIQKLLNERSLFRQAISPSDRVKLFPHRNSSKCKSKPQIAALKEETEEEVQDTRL
The experiment in a line: Measurement of delF508-CFTR functional activity in primary human bronchial epithelial cells (HBECs) using Multi-Transepithelial Clamp Circuit (MTECC-24) assay. The class given is cell-based. The conditions noted are these: primary CF HBECs; for MTECC24 CFHBEC- Amax %: test compound added 24h before assay plus potentiator, relative to reference combination (2 μM corrector + 0.5 μM potentiator); for EC50: test compound added 24h before assay, in the presence of potentiator, mean of at least two replicates, read-out: MTECC24 CFHBEC- EC50. The method, boiled down: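 Compound tested as 10-point, 1-in-3 concentration response (0.1% or 0.2% DMSO), 24 h basolateral pre-incubation, then re-added to both sides. MTECC-24 measured Ieq in ALI-differentiated primary delF508 bronchial cells after amiloride, forskolin activation, potentiator and INH-172 block; data normalized to DMSO baseline, EC50 fitted.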

T1 sequence (P13569 with tags, fused parts or gaps DEL508-508): as above

The term EC50 denotes the concentration that produces a half-maximal response. Turning to `Cc1ccccc1-c1nc(NS(=O)(=O)c2cccc(N[C@@H]3COCC[C@H]3O)n2)ccc1C(F)(F)F` [Example 279, 6-{[(3R,4R)-4-hydroxyoxan-3-yl]amino}-N-[6-(2-methylphenyl)-5-(trifluoromethyl)pyridin-2-yl]pyridine-2-sulfonamide], the EC50 in assay [1] stood at 1.19 µM. On delF508-CFTR, the “MTECC24 CFHBEC- Amax %” value is 93.7% and the EC50 came out at 0.0035 µM.

With `O=S(=O)(Nc1ccc(Cl)c(-c2ccccc2Cl)n1)c1cccc(N2CC(O)C2)n1` [Example 227, N-(5-chloro-6-(2-chlorophenyl)pyridin-2-yl)-6-(3-hydroxyazetidin-1-yl)pyridine-2-sulfonamide], in assay [1], the Emax was 403% and the EC50 was 2.67 µM. At delF508-CFTR, the “MTECC24 CFHBEC- Amax %” value stood at 104.9% and the EC50 was 0.0491 µM.

As for `Cc1ccc(C(F)(F)F)cc1-c1nc(NS(=O)(=O)c2cccc(N3CCNCC3)n2)ccc1Cl` [Example 169, N-(5-chloro-6-(2-methyl-5-(trifluoromethyl)phenyl)pyridin-2-yl)-6-(piperazin-1-yl)pyridine-2-sulfonamide Hydrochloride], in assay [1], the Emax came out at 182% and the concentration for a half-maximal effect (EC50) turned out to be 4 µM. Further, at delF508-CFTR, the “MTECC24 CFHBEC- Amax %” value was 40.5% and the EC50 came out at 0.144 µM.

On to `Cc1c(F)cccc1-c1nc(NS(=O)(=O)c2cccc(N3CCN(C(C)(C)C)CC3)n2)ccc1C(F)(F)F` [Example 142, 6-(4-(tert-butyl)piperazin-1-yl)-N-(6-(3-fluoro-2-methylphenyl)-5-(trifluoromethyl)pyridin-2-yl)pyridine-2-sulfonamide], for which, in assay [1], the Emax was 418% and the EC50 worked out at 2.63 µM. In addition, on delF508-CFTR, the “MTECC24 CFHBEC- Amax %” value amounted to 63.7% and the EC50 is 0.0052 µM.

Take `Cc1ccc(C(F)(F)F)cc1-c1nc(NS(=O)(=O)c2cccc(N3CC(C)(O)C3)n2)ccc1Cl` [Example 212, N-(5-chloro-6-(2-methyl-5-(trifluoromethyl)phenyl)pyridin-2-yl)-6-(3-hydroxy-3-methylazetidin-1-yl)pyridine-2-sulfonamide]: in assay [1], the Emax worked out at 378% and the EC50 was determined as 1.82 µM. On delF508-CFTR, the “MTECC24 CFHBEC- Amax %” value is listed as 68.0% and the EC50 turned out to be 0.082 µM.

On to `Cc1cccc(C)c1-c1nc(NS(=O)(=O)c2ccnc(N)c2)ccc1Cl` [Example 4, 2-amino-N-(5-chloro-6-(2,6-dimethylphenyl)pyridin-2-yl)pyridine-4-sulfonamide], for which, in assay [1], the Emax came to 632% and the half-maximal effective concentration (EC50) is 0.912 µM. Further, on delF508-CFTR, the “MTECC24 CFHBEC- Amax %” value stood at 52.0% and the EC50 is 0.0408 µM.

For `Cc1ccccc1-c1nc(NS(=O)(=O)c2cccc(N[C@@H]3CCNC[C@@H]3F)n2)ccc1C(F)(F)F` (relative stereo) [Example 117, 6-(((3S,4R)-3-fluoropiperidin-4-yl)amino)-N-(6-(o-tolyl)-5-(trifluoromethyl)pyridin-2-yl)pyridine-2-sulfonamide Hydrochloride], in assay [1], the Emax turned out to be 264% and the EC50 is 2.78 µM. Further, at delF508-CFTR, the “MTECC24 CFHBEC- Amax %” value turned out to be 74.7% and the EC50 stood at 0.0331 µM.

For `Cc1ccccc1-c1nc(NS(=O)(=O)c2cccc(N[C@H]3CCOC[C@H]3O)n2)ccc1C(F)(F)F` (single isomer, unassigned) [Example 277], in assay [1], the Emax turned out to be 817% and the EC50 is 2.01 µM. Also, at delF508-CFTR, the “MTECC24 CFHBEC- Amax %” value is reported as 85.1% and the EC50 worked out at 0.0046 µM.

For the compound `Cc1ccccc1-c1nc(NS(=O)(=O)c2cccc(N3CCC[C@H](N)C3)n2)ccc1C(F)(F)F` [Example 103, (S)-6-(3-aminopiperidin-1-yl)-N-(6-(o-tolyl)-5-(trifluoromethyl)pyridin-2-yl)pyridine-2-sulfonamide Hydrochloride], in assay [1], the Emax was 370% and the EC50 came to 2.97 µM. For the same compound, on delF508-CFTR, the “MTECC24 CFHBEC- Amax %” value is reported as 67.8% and the 50% effective concentration (EC50) turned out to be 0.0948 µM.

Consider `Cc1ccccc1-c1nc(NS(=O)(=O)c2cccc(N3CCNC[C@H]3C)n2)ccc1C(F)(F)F` [Example 171, (R)-6-(2-methylpiperazin-1-yl)-N-(6-(o-tolyl)-5-(trifluoromethyl)pyridin-2-yl)pyridine-2-sulfonamide Hydrochloride], for which, in assay [1], the Emax was 505% and the concentration for a half-maximal effect (EC50) came out at 2.73 µM. In addition, at delF508-CFTR, the “MTECC24 CFHBEC- Amax %” value worked out at 66.2% and the 50% effective concentration (EC50) came to 0.118 µM.

Take `Cc1ccccc1-c1nc(NS(=O)(=O)c2cccc(N3CCC[C@@H](N)C3)n2)ccc1C(F)(F)F` [Example 102, (R)-6-(3-aminopiperidin-1-yl)-N-(6-(o-tolyl)-5-(trifluoromethyl)pyridin-2-yl)pyridine-2-sulfonamide Hydrochloride]: in assay [1], the Emax was determined as 577% and the EC50 worked out at 3.28 µM. On delF508-CFTR, the “MTECC24 CFHBEC- Amax %” value stood at 54.3% and the EC50 turned out to be 0.136 µM.

`COc1ccc(F)cc1-c1nc(NS(=O)(=O)c2cccc(N3CC(O)C3)n2)ccc1C(F)(F)F` [Example 209, N-(6-(5-fluoro-2-methoxyphenyl)-5-(trifluoromethyl)pyridin-2-yl)-6-(3-hydroxyazetidin-1-yl)pyridine-2-sulfonamide]: in assay [1], the Emax was determined as 231% and the EC50 came to 2.7 µM. Moreover, on delF508-CFTR, the “MTECC24 CFHBEC- Amax %” value was 95.6% and the EC50 was determined as 0.139 µM.

Take `Cc1cccc(C)c1-c1nc(NS(=O)(=O)c2cccc(N3CC(O)(C4CC4)C3)n2)ccc1Cl` [Example 211, N-(5-chloro-6-(2,6-dimethylphenyl)pyridin-2-yl)-6-(3-cyclopropyl-3-hydroxyazetidin-1-yl)pyridine-2-sulfonamide]: the EC50 in assay [1] turned out to be 1.76 µM; on delF508-CFTR, 0.0086 µM. Moreover, the “MTECC24 CFHBEC- Amax %” value on delF508-CFTR is listed as 71.6%.

As for `Cc1cccc(C)c1-c1cc(C(F)(F)F)cc(NS(=O)(=O)c2cccc(N3CC(O)C3)n2)n1` [Example 205, N-(6-(2,6-dimethylphenyl)-4-(trifluoromethyl)pyridin-2-yl)-6-(3-hydroxyazetidin-1-yl)pyridine-2-sulfonamide], in assay [1], the Emax is 592% and the EC50 was determined as 1.29 µM. Besides, at delF508-CFTR, the “MTECC24 CFHBEC- Amax %” value came to 66.8% and the EC50 turned out to be 0.0018 µM.

In the case of `CCC1(C(=O)O)CCN(c2cccc(S(=O)(=O)Nc3ccc(Cl)c(-c4c(C)cccc4C)n3)n2)CC1` [Example 248, 1-(6-(N-(5-chloro-6-(2,6-dimethylphenyl)pyridin-2-yl)sulfamoyl)pyridin-2-yl)-4-ethylpiperidine-4-carboxylic Acid], in assay [1], the Emax came to 568% and the EC50 amounted to 1.61 µM. Also, at delF508-CFTR, the “MTECC24 CFHBEC- Amax %” value was determined as 68.2% and the EC50 turned out to be 0.0066 µM.

On to `Cc1ccccc1-c1nc(NS(=O)(=O)c2cccc(N3CCN(C4COC4)CC3)n2)ccc1C(F)(F)F` [Example 187, 6-(4-(oxetan-3-yl)piperazin-1-yl)-N-(6-(o-tolyl)-5-(trifluoromethyl)pyridin-2-yl)pyridine-2-sulfonamide], for which, in assay [1], the Emax is 634% and the EC50 came out at 2.56 µM. Moreover, on delF508-CFTR, the “MTECC24 CFHBEC- Amax %” value stood at 78.8% and the half-maximal effective concentration (EC50) worked out at 0.092 µM.

Regarding `Cc1ccccc1-c1nc(NS(=O)(=O)c2cccc(N[C@H]3C[C@H](O)C3)n2)ccc1C(F)(F)F` [Example 284, N-[6-(2-methylphenyl)-5-(trifluoromethyl)pyridin-2-yl]-6-{[(1r,3r)-3-hydroxycyclobutyl]amino}pyridine-2-sulfonamide], in assay [1], the Emax is 493% and the EC50 was determined as 2.28 µM. On delF508-CFTR, the “MTECC24 CFHBEC- Amax %” value came to 85.2% and the EC50 is 0.0009 µM.

In the case of `O=S(=O)(Nc1ccc(C(F)(F)F)c(-c2ccccc2C(F)(F)F)n1)c1cccc(N2CC(O)C2)n1` [Example 224, 6-(3-hydroxyazetidin-1-yl)-N-(5-(trifluoromethyl)-6-(2-(trifluoromethyl)phenyl)pyridin-2-yl)pyridine-2-sulfonamide], in assay [1], the Emax is 499% and the 50% effective concentration (EC50) amounted to 1.38 µM. In addition, on delF508-CFTR, the “MTECC24 CFHBEC- Amax %” value came out at 63.9% and the EC50 turned out to be 0.0049 µM.

Consider `Cc1c(F)cccc1-c1nc(NS(=O)(=O)c2cccc(N3CCN(C4CC4)CC3)n2)ccc1C(F)(F)F` [Example 144, 6-(4-cyclopropylpiperazin-1-yl)-N-(6-(3-fluoro-2-methylphenyl)-5-(trifluoromethyl)pyridin-2-yl)pyridine-2-sulfonamide], for which the EC50 in assay [1] was found to be 1.88 µM. On delF508-CFTR, the “MTECC24 CFHBEC- Amax %” value is recorded as 80.5% and the EC50 amounted to 0.002 µM.

Turning to `CN[C@@H]1CCN(c2cccc(S(=O)(=O)Nc3ccc(C(F)(F)F)c(-c4ccccc4C)n3)n2)C1` [Example 121, (R)-6-(3-(methylamino)pyrrolidin-1-yl)-N-(6-(o-tolyl)-5-(trifluoromethyl)pyridin-2-yl)pyridine-2-sulfonamide Hydrochloride], in assay [1], the Emax came out at 308% and the EC50 stood at 3.45 µM. At delF508-CFTR, the “MTECC24 CFHBEC- Amax %” value is given as 79.6% and the EC50 was 0.164 µM.

The values above are taken from US11066369B2, “N-(pyridin-2-yl)pyridine-sulfonamide derivatives and their use in the treatment of disease” (Novartis AG, priority 2016, dated 2021).
